Like-named read-outs stand apart in the source and are kept apart here. One block for each compound: values may come before it.
Experiments:
[1] = test system: sebaceous gland of the ear of a Syrian hamster; assay: In vivo animal model with reduction in the size of the sebaceous glands (Syrian hamster ear); conditions: 1 g %/mL solution, topical on ear, daily for 24 days, compared to control (absolute ethanol)
Text: The model of the sebaceous gland of the ear of a Syrian hamster described by Plewig and Luderschmidt in J. Inv. Derm., (1977), pp. 171-176 is a classical tool for the in vivo study of the function of the sebaceous gland. In fact, the inner faces of the ear lobes of the hamster contain a high number of sebaceous glands described as being similar to those of human sebaceous follicles in terms of certain characteristics, including their morphology and response to androgens and anti-androgens. In fact the growth and lipogenesis of the sebaceous glands on the inner face of the ear of Syrian hamsters depend on the androgens. The anti-androgenic activity of test compounds can be easily evaluated by measuring the size of the sebaceous glands. Moreover, this model has been selected to evaluate the efficacy of the antagonists of the receptor to the androgens on the sebaceous gland.
Test compounds were evaluated according to the following protocol: male hamsters aged weeks were treated daily for 24 days on the inner face of the right ear with 30 μL of a solution of the test compound to be evaluated in absolute ethanol. For each test compound, groups were treated with solutions at a range of concentrations (e.g., from 0.01 g %/mL to 3 g %/mL), as well as absolute ethanol used as a control. (A concentration of 3 g %/mL means a concentration of 0.03 g/mL.)
At the end of the study, samples were taken from the treated ears. The skin of the inner face of the ear was separated from the cartilage. Under a binocular magnifying glass, two zones of 4 mm^2 were numbered. The size of the sebaceous glands was measured on the numerical images by manually trimming the glands by means of image analysis software (TINA.20). For each image some twenty glands were measured. The average area of the sebaceous glands was calculated for each treatment group.
A Student t-test for independent groups comparing each dose with vehicle was carried out to compare the average size of the sebaceous glands as a function of the doses applied. When the evolution of the effect is represented graphically as a function of the administered dose of test compound, the curve obtained is sigmoid in shape. In the median part, this sigmoid may be likened to a straight line. The dose corresponding to 50% of the maximum effect corresponds graphically to the point located in the centre of the linear section defined as “effective dose 50”. This DE50 characterises the potency of the test compound.

androgen receptor (AR) = androgen receptor (AR) (Homo sapiens (Human), UniProt P10275); assay: Androgen receptor transactivation test in PALM cell line (cross curves against methyl trienolone); format: cell-based
Protocol: This AR inhibiting activity was measured in a transactivation test by the dissociation constants KdR (rest), KdA (active), and Kdapp (apparent).
A compound may be said to be an AR inhibitor if it has a dissociation constant, Kdapp, of less than or equal to 1 μM, and a KdR/KdA ratio of less than or equal to 10 in a transactivation test.
The transactivation test is carried out in the cell line PALM (PC3 androgen receptor Luciferase MMTV), which is a stable transfectant containing the plasmids PMMTV-neo-Luc (reporter gene) and pSG5puro-AR.
In this study, the affinity of each test compound for the 2 states of the receptor (KdR and KdA) is determined together with the apparent Kd (KdApp). This constant depends upon the 2 Kd's (KdR and KdA), but also depends on the initial equilibrium of the receptor between the active state and rest state (L0) and on its expression rate. It is determined by the following formula: 1/KdApp=(L0/(1+L0))×(1/KdR)+(1/(1+L0))×(1/KdA)
In order to determine these constants, “cross curves” of the test compound against a reference agonist, methyl trienolone, are carried out on a 96-well plate. The test compound is used in 10 concentrations and the reference agonist in 7 concentrations.

[2] = apparent dissociation constant, PALM cells (PC3 androgen receptor Luciferase MMTV), read-out: Kdapp
[3] = threshold lists, PALM cells, read-out: Kdapp

Sequence of androgen receptor (AR) (P10275 whole entry): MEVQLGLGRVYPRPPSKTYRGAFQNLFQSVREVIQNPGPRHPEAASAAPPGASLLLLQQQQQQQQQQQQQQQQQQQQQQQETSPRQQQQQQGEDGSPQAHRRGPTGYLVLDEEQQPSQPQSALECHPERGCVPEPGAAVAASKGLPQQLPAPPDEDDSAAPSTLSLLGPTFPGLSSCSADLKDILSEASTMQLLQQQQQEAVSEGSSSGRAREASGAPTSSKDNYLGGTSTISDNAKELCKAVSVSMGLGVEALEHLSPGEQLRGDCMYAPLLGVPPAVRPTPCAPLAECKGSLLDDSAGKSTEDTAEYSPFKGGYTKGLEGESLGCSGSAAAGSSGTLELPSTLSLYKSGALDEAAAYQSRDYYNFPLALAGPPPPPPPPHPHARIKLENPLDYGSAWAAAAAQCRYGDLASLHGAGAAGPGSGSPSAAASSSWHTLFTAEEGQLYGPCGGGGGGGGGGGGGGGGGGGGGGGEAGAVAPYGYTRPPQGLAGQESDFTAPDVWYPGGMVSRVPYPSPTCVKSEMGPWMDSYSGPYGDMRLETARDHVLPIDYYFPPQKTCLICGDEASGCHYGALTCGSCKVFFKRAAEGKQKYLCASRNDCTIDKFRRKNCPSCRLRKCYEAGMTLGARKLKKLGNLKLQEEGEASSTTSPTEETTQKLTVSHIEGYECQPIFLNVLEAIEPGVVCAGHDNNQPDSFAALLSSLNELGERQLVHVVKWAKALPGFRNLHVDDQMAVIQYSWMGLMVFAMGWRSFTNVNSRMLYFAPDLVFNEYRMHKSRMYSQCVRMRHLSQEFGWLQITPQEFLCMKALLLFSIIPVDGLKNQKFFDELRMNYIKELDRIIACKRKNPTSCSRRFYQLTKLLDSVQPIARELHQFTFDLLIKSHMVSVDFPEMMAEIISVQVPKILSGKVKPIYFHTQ

SMILES: CCCC(C)(O)C(=O)Nc1ccnc(Br)c1 (stereo not drawn) [Compound 1, 2-Hydroxy-2-methyl-pentanoic acid (2-bromo-pyridin-4-yl)-amide]
Reduction of sebaceous glands (following treatment at 1 g %/mL) [1]: 53% | Kd (androgen receptor (AR); [2]): 75 nM | Kd (androgen receptor (AR); [3]): ≤ 100 nM

SMILES: CCCCC(O)(CCCC)C(=O)Nc1ccnc(Br)c1 [Compound 23, 2-Butyl-2-hydroxy-hexanoic acid (2-bromo-pyridin-4-yl)-amide]
Reduction of sebaceous glands (following treatment at 1 g %/mL) [1]: 51% | Kd (androgen receptor (AR); [2]): 15 nM | Kd (androgen receptor (AR); [3]): ≤ 30 nM

SMILES: CC(O)(CCc1ccccc1)C(=O)Nc1ccnc(Br)c1 (stereo not drawn) [Compound 43, N-(2-Bromo-pyridin-4-yl)-2-hydroxy-2-methyl-4-phenyl-butyramide]
Reduction of sebaceous glands (following treatment at 1 g %/mL) [1]: 44% | Kd (androgen receptor (AR); Kdapp, threshold lists, PALM cells): ≤ 100 nM | Kd (androgen receptor (AR); [2]): 100 nM

SMILES: CCC(O)(C(=O)Nc1cc(Br)nc(OC)c1)C1CCCC1 (stereo not drawn) [Compound 73B, N-(2-Bromo-6-methoxy-pyridin-4-yl)-2-cyclopentyl-2-hydroxy-butyramide]
Kd (androgen receptor (AR); [3]): ≤ 100 nM

SMILES: CCCCC(C)(O)C(=O)Nc1cc(Br)nc(OC)c1 (stereo not drawn) [Compound 72B, 2-Hydroxy-2-methyl-hexanoic acid (2-bromo-6-methoxy-pyridin-4-yl)-amide]
Reduction of sebaceous glands (following treatment at 1 g %/mL) [1]: 46% | Kd (androgen receptor (AR); [3]): ≤ 100 nM

SMILES: CCCCC(C)(O)C(=O)Nc1cc(Br)nc(OC)c1 (stereo not drawn) [Compound 8, 2-Hydroxy-2-methyl-hexanoic acid (2-bromo-6-methoxy-pyridin-4-yl)-amide]
Reduction of sebaceous glands (following treatment at 1 g %/mL) [1]: 56% | Kd (androgen receptor (AR); [2]): 30 nM | Kd (androgen receptor (AR); [3]): ≤ 30 nM

SMILES: CCCC(C)(O)C(=O)Nc1cc(Br)nc(OC)c1 (stereo not drawn) [Compound 60, 2-Hydroxy-2-methyl-pentanoic acid (2-bromo-6-methoxy-pyridin-4-yl)-amide]
Kd (androgen receptor (AR); [3]): ≤ 100 nM

SMILES: CCC(O)(C(=O)Nc1ccnc(Br)c1)C1CCCC1 (stereo not drawn) [Compound 77B, N-(2-Bromo-pyridin-4-yl)-2-cyclopentyl-2-hydroxy-butyramide]
Kd (androgen receptor (AR); [3]): ≤ 30 nM

SMILES: CCC(O)(C(=O)Nc1cc(Br)nc(OC)c1)C1CCCC1 (stereo not drawn) [Compound 73A, N-(2-Bromo-6-methoxy-pyridin-4-yl)-2-cyclopentyl-2-hydroxy-butyramide]
Kd (androgen receptor (AR); [3]): ≤ 30 nM

SMILES: CCCCC(C)(O)C(=O)Nc1ccnc(Br)c1 (single isomer, unassigned) [Compound 80A, 2-Hydroxy-2-methyl-hexanoic acid (2-bromo-pyridin-4-yl)-amide]
Reduction of sebaceous glands (following treatment at 1 g %/mL) [1]: 51% | Kd (androgen receptor (AR); [3]): ≤ 100 nM

SMILES: CCC(O)(C(=O)Nc1cc(Br)nc(OC)c1)C1CCCC1 (stereo not drawn) [Compound 9, N-(2-Bromo-6-methoxy-pyridin-4-yl)-2-cyclopentyl-2-hydroxy-butyramide]
Kd (androgen receptor (AR); [3]): ≤ 30 nM

SMILES: CCCCC(C)(O)C(=O)Nc1ccnc(Br)c1 (single isomer, unassigned) [Compound 80B, 2-Hydroxy-2-methyl-hexanoic acid (2-bromo-pyridin-4-yl)-amide]
Kd (androgen receptor (AR); [3]): ≤ 300 nM

SMILES: CCCC(C)(O)C(=O)Nc1ccnc(C(=O)OC)c1 (stereo not drawn) [Compound 59, 4-(2-Hydroxy-2-methyl-pentanoylamino)-pyridine-2-carboxylic acid methyl ester]
Kd (androgen receptor (AR); [2]): 6000 nM | Kd (androgen receptor (AR); [3]): ≤ 10000 nM

SMILES: CC(O)(C(=O)Nc1ccnc(Br)c1)c1ccccc1 (stereo not drawn) [Compound 32, N-(2-Bromo-pyridin-4-yl)-2-hydroxy-2-phenyl-propionamide]
Kd (androgen receptor (AR); [2]): 100 nM | Kd (androgen receptor (AR); [3]): ≤ 100 nM

SMILES: CCCC(C)(O)C(=O)Nc1cc(Br)nc(OC)c1 (stereo not drawn) [Compound 78A, 2-Hydroxy-2-methyl-pentanoic acid (2-bromo-6-methoxy-pyridin-4-yl)-amide]
Kd (androgen receptor (AR); [3]): ≤ 100 nM

SMILES: CCC(O)(C(=O)Nc1ccnc(Br)c1)C1CCCC1 (stereo not drawn) [Compound 77A, N-(2-Bromo-pyridin-4-yl)-2-cyclopentyl-2-hydroxy-butyramide]
Kd (androgen receptor (AR); [3]): ≤ 30 nM

SMILES: CCC(O)(C(=O)Nc1ccnc(Br)c1)C1CCCC1 (stereo not drawn) [Compound 51, N-(2-Bromo-pyridin-4-yl)-2-cyclopentyl-2-hydroxy-butyramide]
Kd (androgen receptor (AR); [3]): ≤ 30 nM

SMILES: COc1ccc(CCC(C)(O)C(=O)Nc2ccnc(Br)c2)cc1 (stereo not drawn) [Compound 24, N-(2-Bromo-pyridin-4-yl)-2-hydroxy-4-(4-methoxy-phenyl)-2-methyl-butyramide]
Kd (androgen receptor (AR); [2]): 300 nM | Kd (androgen receptor (AR); [3]): ≤ 300 nM

SMILES: COc1cc(NC(=O)C(C)(O)c2ccc(F)cc2)ccn1 (stereo not drawn) [Compound 27, 2-(4-Fluoro-phenyl)-2-hydroxy-N-(2-methoxy-pyridin-4-yl)-propionamide]
Kd (androgen receptor (AR); [3]): ≤ 300 nM

SMILES: COc1cc(NC(=O)C(C)(O)C2CCOCC2)cc(Br)n1 (stereo not drawn) [Compound 69, N-(2-Bromo-6-methoxy-pyridin-4-yl)-2-hydroxy-2-(tetrahydro-pyran-4-yl)-propionamide]
Kd (androgen receptor (AR); [3]): ≤ 1000 nM

Now from value to compound, other results behind:

Kd (androgen receptor (AR); [3]): ≤ 30 nM
SMILES: COc1cc(NC(=O)C(C)(O)C(C)C)cc(Br)n1 (stereo not drawn) [Compound 25, N-(2-Bromo-6-methoxy-pyridin-4-yl)-2-hydroxy-2,3-dimethyl-butyramide]

Kd (androgen receptor (AR); [3]): ≤ 30 nM
SMILES: CCC(O)(C(=O)Nc1cc(Br)nc(OC)c1)C(C)C (stereo not drawn) [Compound 74B, N-(2-Bromo-6-methoxy-pyridin-4-yl)-2-ethyl-2-hydroxy-3-methyl-butyramide]
Reduction of sebaceous glands (following treatment at 1 g %/mL) [1]: 61%

Kd (androgen receptor (AR); [3]): ≤ 30 nM
SMILES: CCCC(O)(CC)C(=O)Nc1cc(Br)nc(OC)c1 (stereo not drawn) [Compound 19, 2-Ethyl-2-hydroxy-pentanoic acid (2-bromo-6-methoxy-pyridin-4-yl)-amide]
Reduction of sebaceous glands (following treatment at 1 g %/mL) [1]: 61%

Kd (androgen receptor (AR); [3]): ≤ 100 nM
SMILES: CCCC(O)(CC)C(=O)Nc1cc(Br)nc(OC)c1 (stereo not drawn) [Compound 75A, 2-Ethyl-2-hydroxy-pentanoic acid (2-bromo-6-methoxy-pyridin-4-yl)-amide]

Kd (androgen receptor (AR); [3]): ≤ 30 nM
SMILES: CCC(O)(C(=O)Nc1cc(Br)nc(OC)c1)C(C)C (stereo not drawn) [Compound 13, N-(2-Bromo-6-methoxy-pyridin-4-yl)-2-ethyl-2-hydroxy-3-methyl-butyramide]

Kd (androgen receptor (AR); [2]): 20 nM | Kd (androgen receptor (AR); [3]): ≤ 30 nM
SMILES: COc1cc(NC(=O)C(C)(O)CC(C)C)cc(Br)n1 (racemic) [Compound 41, 2-Hydroxy-2,4-dimethyl-pentanoic acid (2-bromo-6-methoxy-pyridin-4-yl)-amide]
Reduction of sebaceous glands (following treatment at 1 g %/mL) [1]: 61%

Kd (androgen receptor (AR); [3]): ≤ 100 nM
SMILES: COc1cc(NC(=O)C(C)(O)C(C)C)cc(Br)n1 (stereo not drawn) [Compound 76B, N-(2-Bromo-6-methoxy-pyridin-4-yl)-2-hydroxy-2,3-dimethyl-butyramide]

Kd (androgen receptor (AR); [3]): ≤ 30 nM
SMILES: CCCC(O)(C(=O)Nc1cc(Br)nc(OC)c1)C(C)C (stereo not drawn) [Compound 79B, 2-Hydroxy-2-isopropyl-pentanoic acid (2-bromo-6-methoxy-pyridin-4-yl)-amide]

Kd (androgen receptor (AR); [3]): ≤ 300 nM
SMILES: COc1cc(NC(=O)C(C)(C)O)cc(Br)n1 [Compound 38, N-(2-Bromo-6-methoxy-pyridin-4-yl)-2-hydroxy-2-methyl-propionamide]

Kd (androgen receptor (AR); [3]): ≤ 30 nM
SMILES: CCCC(O)(C(=O)Nc1cc(Br)nc(OC)c1)C(C)C (stereo not drawn) [Compound 64, 2-Hydroxy-2-isopropyl-pentanoic acid (2-bromo-6-methoxy-pyridin-4-yl)-amide]

Kd (androgen receptor (AR); [3]): ≤ 100 nM
SMILES: CCCC(O)(CC)C(=O)Nc1cc(Br)nc(OC)c1 (stereo not drawn) [Compound 75B, 2-Ethyl-2-hydroxy-pentanoic acid (2-bromo-6-methoxy-pyridin-4-yl)-amide]

Kd (androgen receptor (AR); [3]): ≤ 30 nM
SMILES: COc1cc(NC(=O)C(C)(O)CC(C)C)cc(Br)n1 (single isomer, unassigned) [Compound 71A]

Kd (androgen receptor (AR); [3]): ≤ 100 nM
SMILES: CCCCC(O)(CCCC)C(=O)Nc1cc(Br)nc(OC)c1 [Compound 66, 2-Butyl-2-hydroxy-hexanoic acid (2-bromo-6-methoxy-pyridin-4-yl)-amide]

Kd (androgen receptor (AR); [3]): ≤ 30 nM
SMILES: CCC(O)(C(=O)Nc1cc(Br)nc(OC)c1)C(C)C (stereo not drawn) [Compound 74A, N-(2-Bromo-6-methoxy-pyridin-4-yl)-2-ethyl-2-hydroxy-3-methyl-butyramide]
